# Measurements from patent US20150231147A1, “METHODS FOR ACUTE AND LONG-TERM TREATMENT OF DRUG ADDICTION” (DemeRx, Inc., priority 2014, published 2015).
# “Also recorded” adds a separate entry of the source. Like-named read-outs stand apart in the source and are kept apart here.
# Legend:
# Type in all cases: in vivo, human
# [1] = Plasma noribogaine pharmacokinetics, ascending single oral dose, healthy volunteers; details: for CL/F / AUC(0-inf) / Cmax / Tmax / Vd/F / AUC(0-t) / half-life: plasma; for AUC(0-inf) / Cmax / Tmax / Vd/F / AUC(0-t) / half-life: human; for AUC(0-t): read-out: AUC0-216
# [2] = tested on: opioid-dependent participants; test: Time to resumption of morphine (opioid substitution treatment, OST)
# Experimental: (§1) The efficacy of noribogaine in humans was evaluated in opioid-dependent participants in a randomized, placebo-controlled, double-blind trial. […] See U.S. application Ser. No. 14/214,157, filed Mar. 14, 2014 and Ser. No. 14/346,655, filed Mar. 21, 2014, which are incorporated herein by reference in their entireties.
# (§2) Three cohorts of nine (9) subjects (6 administered noribogaine and 3 administered placebo in each cohort) were evaluated for tolerability, pharmacokinetics, and efficacy. Cohort 1 received a single dose of 60 mg noribogaine or placebo. Cohort 2 received a single dose of 120 mg noribogaine or placebo. Cohort 3 received a single dose of 180 mg noribogaine or placebo.
# [3] = Serum noribogaine pharmacokinetics in patients, Phase IB study; details: for Vd/F / AUC(0-t) / Cmax / Tmax / AUC / half-life: human, serum, opioid-dependent patients, mean ± SD; for Vd/F: unit inferred; for AUC: read-out: AUC(0-¥)
# Experimental: as §1, §2
# [4] = tested on: opioid-dependent participants; test: QT interval prolongation in opioid-dependent patients; details: 60, 120, 180 mg, first 24 hours post administration; correlated with serum concentration
# Experimental: Patients' QT intervals were evaluated at regular time points throughout the study.
# [5] = tested on: opioid-dependent participants; test: Opiate withdrawal scales COWS, SOWS, OOWS
# Experimental: Patients were evaluated based on the Clinical Opiate Withdrawal Scale (COWS), Subjective Opiate Withdrawal Scale (SOWS), and Objective Opiate Withdrawal Scale (OOWS) scoring systems over the period of time between administration of noribogaine (or placebo) until resumption of OST. These scales are outlined in Guidelines for the Psychosocially Assisted Pharmacological Treatment of Opioid Dependence, World Health Organization, Geneva (2009), Annex 10, which is incorporated herein by reference in its entirety. The scales measure the intensity of withdrawal symptoms, based on clinical, subjective, and objective indicia.
# [6] = tested on: healthy, drug-free male volunteers; test: Cold pressor test (analgesic effect)
# Experimental: Analgesic effect was assessed based on duration of hand immersion in ice water and on visual analog scale (VAS) pain scores upon hand removal from the water bath.
# (§3) Safety and tolerability of noribogaine were tested in the group of volunteers from Example 1. […] Safety evaluations included clinical monitoring, recording of adverse events (AEs), safety laboratory tests, vital signs, ECG telemetry from −2 h to 6 h after dosing, and 12-lead electrocardiograms (ECGs) up to 216 hours post-dosing.
# [7] = tested on: healthy, drug-free male volunteers; test: Safety and tolerability of noribogaine in healthy humans (adverse events, vital signs, ECG)
# Experimental: (§4) Pulse oximetry and capnography data were collected continuously using a GE Carescape B650 monitoring system from 2 hours prior to dosing and until six hours after dosing, and thereafter at 12, 24, 48 and 72 hours post-dosing. […] Pupillary miosis was assessed by pupillometry.
# as §3
# [8] = tested on: healthy, drug-free male volunteers; test: Pupillary miosis assessed by pupillometry
# Experimental: as §4
# [9] = healthy male volunteers, single oral 3 mg noribogaine, mean (n = 6)
# [10] = healthy male volunteers, single oral 10 mg noribogaine, mean (n = 6)
# [11] = healthy male volunteers, single oral 30 mg noribogaine, mean (n = 6)
# [12] = healthy male volunteers, single oral 60 mg noribogaine, mean (n = 6)
# [13] = healthy volunteers, 3-60 mg single oral doses
# [14] = after adjusting for baseline differences, p>0.9
compound,measurement,setting,value
CC[C@H]1CC2C[C@H]3c4[nH]c5ccc(O)cc5c4CCN(C2)C13 [Noribogaine],CL/F,[1]; [9],41.4 L/h
same,CL/F,[1]; [10],42.3 L/h
same,CL/F,[1]; [11],46.9 L/h
same,CL/F,[1]; [12],34.0 L/h
same,Volume of distribution across dose groups,[1]; [13],1417 to 3086 L
same,dose dependence of Cmax and AUC,[1]; [13],increased linearly with dose
same,time of peak concentrations after oral dosing,[1]; [13],2 to 3 h
same,AUC(0-inf),[1]; [9],74.2 ng·h/mL
same,Cmax,[1]; [9],5.2 ng/mL
same,Tmax,[1]; [9],1.9 h
same,Vd/F,[1]; [9],2490 L
same,AUC(0-t),[1]; [9],72.2 ng·h/mL
same,half-life,"[1]; healthy male volunteers, single oral 3 mg noribogaine, mean (n = 6), read-out: t1/2 (converted)",40.9 h
same,AUC(0-inf),[1]; [10],254 ng·h/mL
same,Cmax,[1]; [10],14.5 ng/mL
same,Tmax,[1]; [10],2.9 h
same,Vd/F,[1]; [10],3090 L
same,AUC(0-t),[1]; [10],251 ng·h/mL
same,half-life,"[1]; healthy male volunteers, single oral 10 mg noribogaine, mean (n = 6), read-out: t1/2 (converted)",49.2 h
same,AUC(0-inf),[1]; [11],700 ng·h/mL
same,Cmax,[1]; [11],55.9 ng/mL
same,Tmax,[1]; [11],1.8 h
same,Vd/F,[1]; [11],1850 L
same,AUC(0-t),[1]; [11],678 ng·h/mL
same,half-life,"[1]; healthy male volunteers, single oral 30 mg noribogaine, mean (n = 6), read-out: t1/2 (converted)",27.6 h
same,AUC(0-inf),[1]; [12],1960 ng·h/mL
same,Cmax,[1]; [12],116 ng/mL
same,Tmax,[1]; [12],2.4 h
same,Vd/F,[1]; [12],1420 L
same,AUC(0-t),[1]; [12],1940 ng·h/mL
same,half-life,"[1]; healthy male volunteers, single oral 60 mg noribogaine, mean (n = 6), read-out: t1/2 (converted)",29.1 h
same,half-life,"[1]; male, healthy volunteers, 3-60 mg single oral doses, read-out: Mean half-life estimates across dose groups",28 to 50 h
same,average time to resumption of opioids,"[2]; single 120 mg dose, given 2 hours after last morphine dose",greater than 20 hours
same,Time to resumption of OST compared with untreated patients and 60 mg group,[2]; single 180 mg dose,"still longer than untreated patients (7 hours, not shown) or those administered 60 mg noribogaine"
same,dose dependence of maximum serum concentration (Cmax),"[3]; 60, 120, 180 mg cohorts",increased in a dose-dependent manner
same,Vd/F,[3]; Cohort 2 (120 mg),2110 ± 1640 L
same,Vd/F,[3]; Cohort 3 (180 mg),1030 ± 365 L
same,AUC(0-t),[3]; Cohort 1 (60 mg),2020 ± 614 ng·h/mL
same,Cmax,[3]; Cohort 1 (60 mg),81.6 ± 23.8 ng/mL
same,Tmax,[3]; Cohort 1 (60 mg),3.59 ± 0.92 h
same,AUC,[3]; Cohort 1 (60 mg),2060 ± 609 ng·h/mL
same,AUC(0-t),[3]; Cohort 2 (120 mg),3230 ± 1540 ng·h/mL
same,Cmax,[3]; Cohort 2 (120 mg),173 ± 30.7 ng/mL
same,Tmax,[3]; Cohort 2 (120 mg),2.99 ± 1.23 h
same,half-life,[3]; Cohort 2 (120 mg),30.4 ± 9.14 h
same,AUC,[3]; Cohort 2 (120 mg),3280 ± 1580 ng·h/mL
same,AUC(0-t),[3]; Cohort 3 (180 mg),6520 ± 2910 ng·h/mL
same,Cmax,[3]; Cohort 3 (180 mg),268 ± 46.9 ng/mL
same,Tmax,[3]; Cohort 3 (180 mg),4.41 ± 1.8 h
same,half-life,[3]; Cohort 3 (180 mg),23.9 ± 5.54 h
same,AUC,[3]; Cohort 3 (180 mg),6890 ± 3490 ng·h/mL
same,QT interval prolongation (ΔQTcl),[4],dose-dependent increase in QT interval prolongation
same,"withdrawal symptoms (COWS, OOWS, SOWS), first six hours following dosing","[5]; single 120 mg dose, compared with the other patients",generally experienced fewer withdrawal symptoms than the other patients
same,"withdrawal symptoms (COWS, OOWS, SOWS), noribogaine compared with placebo","[5]; single 60, 120 or 180 mg dose, first six hours following dosing",Patients administered placebo generally experienced more withdrawal symptoms than patients who were administered noribogaine
same,"VAS pain scores, each dose group compared with placebo by ANOVA","[6]; after adjusting for baseline differences, p=0.17",no statistically significant differences
same,"duration of hand immersion, each dose group compared with placebo by ANOVA",[6]; [14],no statistically significant differences
same,analgesic effect in the cold pressor test,"[6]; healthy volunteers, 3-60 mg single oral doses, 1° C. water",no analgesic effect
same,"Adverse events, Mild","[7]; healthy volunteers, 3 mg dose",Dizziness; also recorded: Epistaxis; also recorded: Headache; also recorded: Back pain
same,"Adverse events, Moderate","[7]; healthy volunteers, 3 mg dose",Headache
same,number of adverse events reported,"[7]; healthy volunteers, 3 mg dose group",five adverse events were reported by two subjects
same,"Adverse events, Mild","[7]; healthy volunteers, 10 mg dose",Headache
same,number of adverse events reported,"[7]; healthy volunteers, 10 mg dose group",one adverse event was reported by single subjects
same,"Adverse events, Mild","[7]; healthy volunteers, 30 mg dose",Headache
same,number of adverse events reported,"[7]; healthy volunteers, 30 mg dose group",one adverse event was reported by single subjects
same,"changes in oximetry, capnography, respiratory rate","[7]; healthy volunteers, 3-60 mg","no changes in oximetry or capnography, or changes in respiratory rate"
same,changes in vital signs or safety laboratory tests,"[7]; healthy volunteers, 3-60 mg",no changes in vital signs or safety laboratory tests of note
same,QTcF values,"[7]; healthy volunteers, 3-60 mg, at any time",≤ 500 ms
same,intensity of adverse events,"[7]; healthy volunteers, all groups, all resolved prior to study completion",mild-moderate intensity
same,single increase in QTcF,"[7]; one subject dosed with 10 mg, 24 hours post-dosing",> 60 ms
same,"pupil diameter, each dose group compared with placebo by ANOVA",[8]; [14],no statistically significant differences
same,pupillary constriction,[8]; [13],no evidence of pupillary constriction
